Measurements reported in patent US20250163057A1, “DCN-1 MODULATING COMPOUNDS AND METHODS OF USE THEREOF” (Cellarity, Inc., priority 2023, published 2025).

Experiments:
[1] = biological target: DCN1 (DCUND1) protein PONY domain (Homo sapiens (Human), UniProt Q96GG9); assay: Off-rate measurement of reversible covalent molecules (jump dilution TR-FRET with Cy5 probe); format: binding; conditions: for Category: binding mode category from off-rate assay; for residence time: inverse of rate constant K; for residence time / half-life: jump dilution TR-FRET; for koff: jump dilution, Cy5 covalent probe 150 nM, TR-FRET; for half-life: ln(2)/K
DCN1 (DCUND1) protein PONY domain, sequence (Q96GG9 60-248): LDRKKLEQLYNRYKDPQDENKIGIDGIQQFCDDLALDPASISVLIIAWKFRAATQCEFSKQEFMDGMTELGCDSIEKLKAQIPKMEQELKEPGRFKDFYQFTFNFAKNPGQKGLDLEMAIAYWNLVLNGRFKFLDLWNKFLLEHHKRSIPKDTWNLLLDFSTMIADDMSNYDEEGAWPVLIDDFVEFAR
Text: A typical covalent compound is assumed to stay bound to a protein for at least the life of that protein in the cell. In reality, there is a range of how long a covalent compounds remains bound before a reverse reaction takes place. Thus, some covalent bonds can be labeled as reversible as their reverse reaction takes place in a measurable amount of time under physiological conditions. The assay capitalizes on the range of covalent binders by using a high affinity covalent binder as a probe to displace the more reversible binders in an adaptation of the jump dilution method.
In this version of the jump dilution method, the increase in covalent probe binding over time was measured through a TR-FRET reaction between the covalent probe and the biotinylated target protein.
The recombinant form of the DCN1 (DCUND1) protein PONY domain was produced using an E. coli expression system at Viva Biotech (China). The DCN1 protein was biotinylated (EZ sulfo-NHS-LC-biotin; Thermofisher) for labeling with streptavidin terbium (Tb) cryptate in the reaction. This biotinylated protein was used in two forms of the TR-FRET assay as described below.
The off-rate measurement is executed in two steps based on the jump dilution method. […] The greatest dilution allowed within the constraints of the assay was chosen. These factors allow a competitive advantage for the covalent probe to replace the test compound when that compound releases from the target protein. The actual measure is the rate of increased TR-FRET signal as the covalent probe replaces the test compound over time. […] The resulting time dependent curve of the TR-FRET signal is fit to the following equation:
Y=Y0+(Plateau−Y0)*(1−exp(−K*x))
K is the rate constant (1/unit of time). The residence time is defined as the inverse of K, the rate constant. The half-life is calculated as ln(2)/K.

[2] = biological target: DCN2 (DCUND2) protein PONY domain (Homo sapiens (Human), UniProt Q6PH85); assay: Measurement of Kinact/KI in the DCN2 TR-FRET Assay; format: binding; conditions: for kinact/KI: read-out: Kinact/KI (converted); for Ki / kinact: time-dependent IC50 over 24 hrs; for kinact: read-out: Kinact (converted)
DCN2 (DCUND2) protein PONY domain, sequence (Q6PH85 60-248): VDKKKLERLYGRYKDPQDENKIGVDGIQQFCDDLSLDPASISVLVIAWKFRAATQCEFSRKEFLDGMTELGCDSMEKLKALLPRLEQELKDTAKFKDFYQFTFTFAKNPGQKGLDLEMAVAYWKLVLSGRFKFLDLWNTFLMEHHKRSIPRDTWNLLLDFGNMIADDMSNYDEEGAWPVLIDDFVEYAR
Experimental: A TR-FRET Assay was performed to evaluate the ability of the compounds to bind DCN-2.
The time resolved—Forster's resonance energy transfer (TR-FRET) assay was designed following the protocol established in (Scott et al., Nat Chem Biol. 2017 August; 13(8): 850-857). A recombinant form of the DCN2 (DCUND2) protein PONY domain was produced using an E. coli expression system at Viva Biotech China. The DCN2 protein was biotinylated (EZ sulfo-NHS-LC-biotin; Thermofisher) for labeling with 2.5 nM streptavidin terbium (Tb) cryptate in the reaction. The probe was changed to a non-covalent DCN1 inhibitor labeled with carboxyfluorescein (FAM; Zhou et al, Nat Commun. 2017; 8: 1150). Buffer conditions were modified to enhance protein stability by replacing TritonX with 0.05% Tween20 and increasing NaCl to 200 mM. The compounds were screened against 0.31 nM DCN1 and 40 nM FAM-labeled probe in a 40 ul reaction volume. The TR-FRET ratio between Tb-DCN1 and the FAM-labeled probe was measured in a 384-well opti-plate (Perkin Elmer) using a plate reader (BMG) at after treatment with compound (final DMSO concentration of 0.1%). The ratio was normalized to the high (DCN1 and FAM-probe) and low (DCN1 and no probe) controls for a readout of % activity (=100*(x−low)/(high−low)).
The Kinact and KI measurements were taken to allow for continuous reads over 24 hrs. Plates were read every 5 min up to 1 hr, every 15 min up to 5 hr, and every hour up to […]. Kinact and KI were calculated based on the following equations (Krippendorff B F, et al. Mechanism-based inhibition: deriving K(I) and k(inact) directly from time-dependent IC(50) values. J BiomolScreen. 2009; Mons E et al. A Comprehensive Guide for Assessing Covalent Inhibition in Enzymatic Assays Illustrated with Kinetic Simulations. CurrProtoc. 2022) where the KM of the probe against DCN2 is 21.62 nM. The Kinact and KI values could be estimated from the tight curves of the IC50 values over time.

CCN1C(=O)[C@@H](NC(=O)c2cccc(C(F)(F)F)c2)[C@@H](C2CC2)c2c(C(=O)N3CCS(=O)(=O)C[C@H]3C#N)nn(C3CCOCC3)c21 (mixture of isomers) [Compound I-379] was tested, and the Category [1] was “reversible covalent”, the residence time [1] was 78.9 min and the koff [1] was 0.000211 s⁻¹. For the same compound, the half-life [1] was 0.9115 h.

For CCN1C(=O)[C@@H](NC(=O)c2cccc(C(F)(F)F)c2)[C@@H](c2ccc(F)cc2)c2c([C@@H](C)NC#N)nn(-c3ccccc3)c21 [Compound I-73, N-((4S,5S)-3-((R)-1-cyanamidoethyl)-7-ethyl-4-(4-fluorophenyl)-6-oxo-1-phenyl-4,5,6,7-tetrahydro-1H-pyrazolo[3,4-b]pyridin-5-yl)-3-(trifluoromethyl)benzamide], the Category [1] was “irreversible covalent”, the kinact/KI [2] was 83300 M⁻¹ s⁻¹ and the Ki [2] was 46.4 nM. It also gave a kinact [2] of 0.00384 s⁻¹.

With CCN1C(=O)[C@@H](NC(=O)c2cccc(C(F)(F)F)c2)[C@@H](C2CC2)c2c(C(=O)N3[C@H](C#N)C[C@H]4C[C@H]43)nn(C3CCOCC3)c21 [Compound I-256, N-((4S,5S)-3-((1R,3S,5R)-3-cyano-2-azabicyclo[3.1.0]hexane-2-carbonyl)-4-cyclopropyl-7-ethyl-6-oxo-1-(tetrahydro-2H-pyran-4-yl)-4,5,6,7-tetrahydro-1H-pyrazolo[3,4-b]pyridin-5-yl)-3-(trifluoromethyl)benzamide] the Category [1] was “slow reversible”, the residence time [1] was 219 min and the koff [1] was 7.96e-05 s⁻¹. It also gave a half-life [1] of 2.535 h, a kinact/KI [2] of 78300 M⁻¹ s⁻¹ and a Ki [2] of 99.4 nM. It also gave a kinact [2] of 0.00783 s⁻¹.

For CCN1C(=O)[C@@H](NC(=O)c2cccc(C(F)(F)F)c2)[C@@H](c2ccc(F)cc2)c2c(C(=O)N3CCC[C@H]3C#N)nn(C3CCOCC3)c21 [Compound I-350], the Category [1] was “slow reversible”, the residence time [1] was 699 min and the koff [1] was 2.64e-05 s⁻¹. It also gave a half-life [1] of 8.07 h, a kinact/KI [2] of 45000 M⁻¹ s⁻¹ and a Ki [2] of 92.9 nM. For the same compound, the kinact [2] was 0.00417 s⁻¹.

CCN1C(=O)[C@@H](NC(=O)c2cccc(C(F)(F)F)c2)[C@@H](c2ccc(F)cc2)c2c(C(=O)N3CCNC[C@H]3C#N)nn(C3CCOCC3)c21 [Compound I-363, N-((4S,5S)-3-((S)-2-cyanopiperazine-1-carbonyl)-7-ethyl-4-(4-fluorophenyl)-6-oxo-1-(tetrahydro-2H-pyran-4-yl)-4,5,6,7-tetrahydro-1H-pyrazolo[3,4-b]pyridin-5-yl)-3-(trifluoromethyl)benzamide] was tested, and the Category [1] was “slow reversible”, the kinact/KI [2] was 263000 M⁻¹ s⁻¹ and the Ki [2] was 17.4 nM. For the same compound, the kinact [2] was 0.00459 s⁻¹.

With CCN1C(=O)[C@@H](NC(=O)c2cccc(C(F)(F)F)c2)[C@@H](c2ccc(F)cc2)c2c(C(=O)N(C)[C@@H](C#N)CCN(C)C)nn(C3CCOCC3)c21 [Compound I-369] the Category [1] was “fast reversible”, the residence time [1] was 39.4 min and the koff [1] was 0.000425 s⁻¹. For the same compound, the half-life [1] was 0.455 h, the kinact/KI [2] was 11700 M⁻¹ s⁻¹ and the Ki [2] was 2 nM. The kinact [2] was 2.17e-05 s⁻¹.

For CCN1C(=O)[C@@H](NC(=O)c2cccc(C(F)(F)F)c2)[C@@H](c2ccc(F)cc2)c2c(C(=O)N(C)[C@H](C#N)CCN(C)C)nn(C3CCOCC3)c21 [Compound I-370], the Category [1] was “fast reversible”, the residence time [1] was 78.6 min and the koff [1] was 0.000212 s⁻¹. It also gave a half-life [1] of 0.908 h, a kinact/KI [2] of 107000 M⁻¹ s⁻¹ and a Ki [2] of 0.488 nM. For the same compound, the kinact [2] was 5.17e-05 s⁻¹.

For CCN1C(=O)[C@@H](NC(=O)c2cccc(C(F)(F)F)c2)[C@@H](C2CC2)c2c(C(=O)N3C[C@H](F)C[C@H]3C#N)nn(C3CCOCC3)c21 [Compound I-372], the kinact/KI [2] was 13300 M⁻¹ s⁻¹, the Ki [2] was 229 nM and the kinact [2] was 0.00313 s⁻¹.

In the case of CCN1C(=O)[C@@H](NC(=O)c2cccc(C(F)(F)F)c2)[C@@H](C2CC2)c2c(C(=O)N3C[C@H](OC)C[C@H]3C#N)nn(C3CCOCC3)c21 [Compound I-377], the kinact/KI [2] is reported as 21700 M⁻¹ s⁻¹, the Ki [2] is reported as 161 nM and the kinact [2] is reported as 0.00354 s⁻¹.

For CCN1C(=O)[C@@H](NC(=O)c2cccc(C(F)(F)F)c2)[C@@H](C2CC2)c2c(C(=O)N3CCNC[C@H]3C#N)nn(-c3ccccc3)c21 [Compound I-383], the Category [1] was “irreversible covalent”, the kinact/KI [2] was 48300 M⁻¹ s⁻¹ and the Ki [2] was 95.8 nM. For the same compound, the kinact [2] was 0.00465 s⁻¹.

With CCN1C(=O)[C@@H](NC(=O)c2cccc(C(F)(F)F)c2)[C@@H](C)c2c(C(=O)N3[C@H](C#N)C[C@H]4C[C@H]43)nn(C3CCOCC3)c21 [Compound I-387] the Category [1] was “reversible covalent”, the residence time [1] was 144 min and the koff [1] was 0.000116 s⁻¹. It also gave a half-life [1] of 1.67 h, a kinact/KI [2] of 46700 M⁻¹ s⁻¹ and a Ki [2] of 157 nM. For the same compound, the kinact [2] was 0.00727 s⁻¹.

For CCc1cccc(C(=O)N[C@@H]2C(=O)N(CC)c3c(c(C(=O)N4[C@H](C#N)C[C@H]5C[C@H]54)nn3C3CCOCC3)[C@@H]2C2CC2)c1 [Compound I-552, N-((4S,5S)-3-((1R,3S,5R)-3-cyano-2-azabicyclo[3.1.0]hexane-2-carbonyl)-4-cyclopropyl-7-ethyl-6-oxo-1-(tetrahydro-2H-pyran-4-yl)-4,5,6,7-tetrahydro-1H-pyrazolo[3,4-b]pyridin-5-yl)-3-ethylbenzamide], the Category [1] was “reversible covalent”, the residence time [1] was 224 min and the koff [1] was 7.5e-05 s⁻¹. For the same compound, the half-life [1] was 2.593 h, the kinact/KI [2] was 333000 M⁻¹ s⁻¹ and the Ki [2] was 17 nM. For the same compound, the kinact [2] was 0.00566 s⁻¹.

In the case of CCN1C(=O)[C@@H](NC(=O)c2cccc(C(F)(F)F)c2)[C@@H](C2CC2)c2c(C(=O)N3CCNC[C@H]3C#N)nn(C3CCOCC3)c21 [Compound I-582], the Category [1] is reported as “irreversible covalent”.

In the case of CCN1C(=O)[C@@H](NC(=O)c2cccc(C(F)(F)F)c2)[C@@H](C2CC2)c2c(C(=O)N3CS(=O)(=O)C[C@H]3C#N)nn(C3CCOCC3)c21 [Compound I-617], the Category [1] is reported as “fast reversible”, the residence time [1] is reported as 66.3 min and the koff [1] is reported as 0.000251 s⁻¹. For the same compound, the half-life [1] was 0.7658 h.
